Data taken from patent US20050043326A1, “Compounds” (Pfizer Inc, priority 2003, published 2005).

Key:
[1] = system: TNFα release from human peripheral blood mononuclear cells; experiment: Inhibition of TNFα release from LPS-stimulated human peripheral blood mononuclear cells (TNFα screen); type: cell-based; conditions: PBMC, 18 hours incubation, TNFα in supernatant by ELISA
Description: Venous blood is collected from healthy volunteers and the mononuclear cells purified by centrifugation through Histopaque (Ficoll) cushions. TNFα production from these cells is stimulated by addition of lipopolysaccharide. After 18 hours incubation in the presence of LPS, the cell supernatant is removed and the concentration of TNFα in the supernatant determined by ELISA.
(§1) Data are presented below for the Examples in which the TNFα and PDE4 inhibition are presented as IC50 values in nM.

[2] = system: PDE4; experiment: PDE4 inhibition: hydrolysis of tritium labelled cAMP to AMP, SPA bead scintillation counting; type: biochemical; conditions: tritium labelled cAMP incubated with PDE4, yttrium silicate SPA beads
Description: The PDE4 inhibitory activity of the nicotinamide derivatives of the formula (I) is determined by the ability of compounds to inhibit the hydrolysis of cAMP to AMP by PDE4 (Thompson J W, Teraski W L, Epstein P M, Strada S J., “Assay of nucleotidephosphodiesterase and resolution of multiple molecular forms of the isoenzyme”, Advances in cyclic nucleotides research, edited by Brooker G, Greengard P, Robinson G A. Raven Press, New York 1979, 10, p. 69-92). Tritium labelled cAMP is incubated with PDE4. Following incubation, the radiolabelled AMP produced is able to bind yttrium silicate SPA beads. These SPA beads subsequently produce light that can be quantified by scintillation counting. The addition of a PDE4 inhibitor prevents the formation of AMP from cAMP and counts are diminished. The IC50 of a PDE4 inhibitor can be defined as the concentration of a compound that leads to a 50% reduction in counts compared to the PDE4 only (no inhibitor) control wells.
as §1

Compound	IC50 [1] [nM]	IC50 [2] [nM]
O=C(N[C@H]1CC[C@@H](NS(=O)(=O)c2cccc3cccnc23)CC1)c1cccnc1OC1CCSCC1 [Example 65]	0.02	1.8
O=C(N[C@H]1CC[C@@H](NS(=O)(=O)c2c(O)ccc3nsnc23)CC1)c1cc(F)cnc1OC1CCSCC1 [Example 74, Syn-5-Fluoro-N-[4-(5-hydroxy-benzo[1,2,5]thiadiazole-4-sulfonylamino)-cyclohexyl]-2-(tetrahydro-thiopyran-4-yloxy)-nicotinamide]	1	3.5
